Here are results for 25 compounds from patent US20150291598A1 (NOVARTIS AG, priority 2012, published 2015).

Structures are written as SMILES.

This assay has as its system P. falciparum (NF54 or 3D7 strain). As to the kind of experiment: Assay for P. falciparum proliferation in infected human blood cells (SYBR Green). The class given is cell-based, Plasmodium falciparum. Conditions: Plasmodium falciparum, Erythrocyte, 72 h, NF54 or 3D7 infected human erythrocytes, 72 hours; read-out: EC50 (nM), inhibitory efficacy in delaying P. falciparum proliferation in infected human blood cells. Summed up:
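NF54 or 3D7 parasites in O+ human erythrocytes at 2.5% hematocrit and 0.3% parasitemia final, exposed to compounds 72 h at 37 °C under 93% N2/4% CO2/3% O2.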
For the compound `CN(C(=O)c1cn2c(-c3ccc(C(F)(F)F)cc3)cnc2cn1)c1nccs1` [Compound 356, N-methyl-N-(1,3-thiazol-2-yl)-3-[4-(trifluoromethyl)phenyl]imidazo[1,2-a]pyrazine-6-carboxamide], the EC50 came to 6680 nM.
As for `CN(C)c1ccc(-c2cnc3cnc(C(=O)N(C)c4ccc(Cl)nc4)cn23)cn1` [Compound 357, N-(6-chloropyridin-3-yl)-3-[6-(dimethylamino)pyridin-3-yl]-N-methylimidazo[1,2-a]pyrazine-6-carboxamide], the EC50 was determined as 5490 nM.
As for `COc1ccnc(N(C)C(=O)c2cn3c(-c4ccc(C(F)(F)F)cc4)cnc3cn2)c1` [Compound 358, -(4-methoxypyridin-2-yl)-N-methyl-3-[4-(trifluoromethyl)phenyl]imidazo[1,2-a]pyrazine-6-carboxamide], the EC50 turned out to be 1170 nM.
Turning to `COC[C@@H]1CCCN1c1ccc(N(C)C(=O)c2cn3c(-c4ccc(C(F)(F)F)cc4)cnc3cn2)cn1` [Compound 359, N-{6-[(2S)-2-(methoxymethyl)pyrrolidin-1-yl]pyridin-3-yl}-N-methyl-3-[4-(trifluoromethyl)phenyl]imidazo[1,2-a]pyrazine-6-carboxamide], the EC50 was greater than 10000 nM.
Take `CN(C(=O)c1cn2c(-c3ccc4c(c3)OCCO4)cnc2cn1)c1ccc(Cl)nc1` [Compound 360, N-(6-chloropyridin-3-yl)-3-(2,3-dihydro-1,4-benzodioxin-6-yl)-N-methylimidazo[1,2-a]pyrazine-6-carboxamide]: the EC50 is greater than 4570 nM.
The figure for `CC(=O)Nc1ccc(-c2cnc3cnc(C(=O)N(C)c4ccc(C)cn4)cn23)cc1` [Compound 361, 3-(4-acetamidophenyl)-N-methyl-N-(5-methylpyridin-2-yl)imidazo[1,2-a]pyrazine-6-carboxamide] is 5150 nM; for `N#Cc1ccc(CNC(=O)c2cn3c(-c4ccc(C(F)(F)F)cc4)cnc3cn2)cc1` [Compound 362, -[(4-cyanophenyl)methyl]-3-[4-(trifluoromethyl)phenyl]imidazo[1,2-a]pyrazine-6-carboxamide] it is 6470 nM; for `CC(C)S(=O)(=O)Nc1ccc(-c2cnc3cnc(C(=O)N(C)c4ccc(C#N)cc4)cn23)cc1` [Compound 363, N-(4-cyanophenyl)-N-methyl-3-[4-(propane-2-sulfonamido)phenyl]imidazo[1,2-a]pyrazine-6-carboxamide] it is 7020 nM.
With `CC(C)c1nc(-c2cnc3cnc(C(=O)N(C)c4ccc(Cl)nc4)cn23)cs1` [Compound 364, N-(6-chloropyridin-3-yl)-N-methyl-3-[2-(propan-2-yl)-1,3-thiazol-4-yl]imidazo[1,2-a]pyrazine-6-carboxamide], the EC50 is 8240 nM.
For `CN(C(=O)c1cn2c(-c3ccc(C(F)(F)F)cc3)cnc2cn1)c1ccc(-n2cncn2)nc1` [Compound 365, N-methyl-N-[6-(1H-1,2,4-triazol-1-yl)pyridin-3-yl]-3-[4-(trifluoromethyl)phenyl]imidazo[1,2-a]pyrazine-6-carboxamide], the EC50 was determined as 6140 nM.
The value for `CN(C(=O)c1ccc(OC(F)(F)F)cc1)c1cn2c(-c3ccc(C(F)(F)F)cc3)cnc2cn1` [Compound 366, N-methyl-4-(trifluoromethoxy)-N-{3-[4-(trifluoromethyl)phenyl]imidazo[1,2-a]pyrazin-6-yl}benzamide] was greater than 6250 nM; that for `Cc1nnc(-c2ccc(-c3cnc4cnc(C(=O)N(C)c5ccc(Cl)nc5)cn34)cn2)o1` [Compound 367, N-(6-chloropyridin-3-yl)-N-methyl-3-[6-(5-methyl-1,3,4-oxadiazol-2-yl)pyridin-3-yl]imidazo[1,2-a]pyrazine-6-carboxamide] was greater than 9280 nM; that for `CCn1nccc1NC(=O)c1cn2c(-c3ccc(C(F)(F)F)cc3)cnc2cn1` [Compound 368, N-(1-ethyl-1H-pyrazol-5-yl)-3-[4-(trifluoromethyl)phenyl]imidazo[1,2-a]pyrazine-6-carboxamide] was 7040 nM.
The figure for `CN(C(=O)c1cn2c(-c3ccc(C#N)cc3)cnc2cn1)c1ccc(C(F)(F)F)cc1` [Compound 369, 3-(4-cyanophenyl)-N-methyl-N-[4-(trifluoromethyl)phenyl]imidazo[1,2-a]pyrazine-6-carboxamide] is 1160 nM.
The figure for `CN(Cc1ccccc1)C(=O)c1cn2c(-c3ccc(C(F)(F)F)cc3)cnc2cn1` [Compound 370, N-benzyl-N-methyl-3-[4-(trifluoromethyl)phenyl]imidazo[1,2-a]pyrazine-6-carboxamide] is 8200 nM; for `NC(=O)c1ccc(NC(=O)c2cn3c(-c4ccc(C(F)(F)F)cc4)cnc3cn2)nc1` [Compound 371, 2-C-3-[4-(trifluoromethyl)phenyl]imidazo[1,2-a]pyrazine-6-pyridine-2,5-dicarboxamide] it is greater than 10000 nM; for `CN(C(=O)c1cn2c(-c3ccc(OCCN)cc3)cnc2cn1)c1ccc(C#N)cc1` [Compound 372, 3-[4-(2-aminoethoxyl)phenyl]-N-(4-cyanophenyl)-N-methylimidazo[1,2-a]pyrazine-6-carboxamide] it is greater than 10000 nM.
Turning to `CC(=O)Nc1ccc(-c2cnc3cnc(C(=O)N(C)c4ccc(C)cn4)cn23)cn1` [Compound 373, 3-(6-acetamidopyridin-3-yl)-N-methyl-N-(5-methylpyridin-2-yl)imidazo[1,2-a]pyrazine-6-carboxamide], the EC50 was greater than 9880 nM.
For `O=C(c1cn2c(-c3ccc(C(F)(F)F)cc3)cnc2cn1)N1CCOCC1` [Compound 374, 4-({3-[4-(trifluoromethyl)phenyl]imidazo[1,2-a]pyrazin-6-yl}carbonyl)morpholine], the EC50 is greater than 9820 nM.
`CN(C(=O)c1cn2c(-c3ccc(C(F)(F)F)cc3)cnc2cn1)c1ccc(CN)cc1` [Compound 375, N-[4-(aminomethyl)phenyl]-N-methyl-3-[4-(trifluoromethyl)phenyl]imidazo[1,2-a]pyrazine-6-carboxamide]: the EC50 is greater than 6830 nM.
Regarding `Cc1nc2cnc(C(=O)Nc3ccc(C#N)cc3)cn2c1-c1ccc(C(F)(F)F)cc1` [Compound 376, N-(4-cyanophenyl)-2-methyl-3-[4-(trifluoromethyl)phenyl]imidazo[1,2-a]pyrazine-6-carboxamide], the EC50 came out at 9490 nM.
The value for `CN(C(=O)c1cn2c(-c3ccc(C#N)cc3)cnc2cn1)c1ccc(C#N)cc1` [Compound 377, N,3-bis(4-cyanophenyl)-N-methylimidazo[1,2-a]pyrazine-6-carboxamide] was 8190 nM.
The figure for `Cc1cc(-c2cnc3cnc(C(=O)N(C)c4ccc(C#N)cc4)cn23)ccn1` [Compound 378, N-(4-cyanophenyl)-N-methyl-3-(2-methylpyridin-4-yl)imidazo[1,2-a]pyrazine-6-carboxamide] is greater than 7030 nM; for `CN(C(=O)c1cn2c(-c3ccc4c(c3)CC(=O)N4)cnc2cn1)c1ccc(Cl)nc1` [Compound 379, N-(6-chloropyridin-3-yl)-N-methyl-3-(2-oxo-2,3-dihydro-1H-indol-5-yl)imidazo[1,2-a]pyrazine-6-carboxamide] it is 6260 nM.
Take `CN(C(=O)c1cn2c(-c3cnc(N)nc3)cnc2cn1)c1ccc(C#N)cc1` [Compound 380, 3-(2-aminopyrimidin-5-yl)-N-(4-cyanophenyl)-N-methylimidazo[1,2-a]pyrazine-6-carboxamide]: the EC50 was found to be 4500 nM.
